Data as given in article PMC6980330 (Steroids, 2019).

Target: T1, vitamin D receptor (VDR) (Homo sapiens, UniProt P11473)
T1 sequence (P11473 118-427 limits assumed): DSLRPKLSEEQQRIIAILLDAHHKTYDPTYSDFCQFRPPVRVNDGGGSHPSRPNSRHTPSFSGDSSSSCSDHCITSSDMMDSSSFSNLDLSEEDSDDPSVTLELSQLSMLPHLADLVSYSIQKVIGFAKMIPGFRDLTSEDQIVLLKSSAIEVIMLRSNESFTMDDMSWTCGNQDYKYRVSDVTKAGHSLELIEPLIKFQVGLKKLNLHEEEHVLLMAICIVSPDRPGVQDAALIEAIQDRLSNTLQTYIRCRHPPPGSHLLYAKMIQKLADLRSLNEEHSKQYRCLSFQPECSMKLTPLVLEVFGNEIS
Assay type: binding

- IC50: 71.2 µM
Compound: C=C1CC[C@H](O)C/C1=C/C=C1\CCC[C@]2(C)[C@@H]([C@H](C)CC(=O)O)CC[C@@H]12 [compound 13, calcioic acid]
